In PubChem BioAssay AID330 (DTP/NCI, 2004):
Values joined by “and” are separate entries in the source; they are usually repeats but may differ in a detail not shown here. Equal values may be shown once. Inconclusive results and toxic doses are left out.

System: P388 leukemia ip, CD2F1 mice, survival T/C
Test: NCI In Vivo Anticancer Drug Screen. Data for tumor model P388 Leukemia (intraperitoneal) in CD2F1 (CDF1) mice
Settings: endpoint: median survival time, higher = longer survival
In short: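 Mice carrying the transplanted tumor received test compound or vehicle. Survival was recorded in each group, and the value is the treated-group measurement divided by that of the vehicle-treated control group.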

[1] = dose: 60.0 mg/kg/injection, schedule: Q01DX005 (ip), vehicle: saline with Tween-80
[2] = dose: 120.0 mg/kg/injection, schedule: Q01DX005 (ip), vehicle: saline with Tween-80
[3] = dose: 240.0 mg/kg/injection, schedule: Q01DX005 (ip), vehicle: saline with Tween-80
[4] = dose: 100.0 mg/kg/injection, schedule: Q04DX003 (ip), vehicle: saline with Tween-80
[5] = dose: 200.0 mg/kg/injection, schedule: Q04DX003 (ip), vehicle: saline with Tween-80
[6] = dose: 400.0 mg/kg/injection, schedule: Q04DX003 (ip), vehicle: saline with Tween-80
[7] = dose: 100.0 mg/kg/injection, schedule: Q01DX001 (ip), vehicle: saline
[8] = dose: 200.0 mg/kg/injection, schedule: Q01DX001 (ip), vehicle: saline
[9] = dose: 400.0 mg/kg/injection, schedule: Q01DX001 (ip), vehicle: saline
[10] = dose: 50.0 mg/kg/injection, schedule: Q01DX009 (ip), vehicle: Klucel (hydroxypropylcellulose) (HPC)
[11] = dose: 100.0 mg/kg/injection, schedule: Q01DX009 (ip), vehicle: Klucel (hydroxypropylcellulose) (HPC)
[12] = dose: 200.0 mg/kg/injection, schedule: Q01DX009 (ip), vehicle: Klucel (hydroxypropylcellulose) (HPC)
[13] = dose: 50.0 mg/kg/injection, schedule: Q01DX005 (ip), vehicle: saline
[14] = dose: 100.0 mg/kg/injection, schedule: Q01DX005 (ip), vehicle: saline
[15] = dose: 50.0 mg/kg/injection, schedule: Q01DX005 (ip), vehicle: Klucel (hydroxypropylcellulose) (HPC)
[16] = dose: 100.0 mg/kg/injection, schedule: Q01DX005 (ip), vehicle: Klucel (hydroxypropylcellulose) (HPC)
[17] = dose: 12.5 mg/kg/injection, schedule: Q01DX009 (ip), vehicle: Klucel (hydroxypropylcellulose) (HPC)
[18] = dose: 25.0 mg/kg/injection, schedule: Q01DX009 (ip), vehicle: Klucel (hydroxypropylcellulose) (HPC)
[19] = dose: 100.0 mg/kg/injection, schedule: Q01DX009 (ip), vehicle: other
[20] = dose: 200.0 mg/kg/injection, schedule: Q01DX009 (ip), vehicle: other
[21] = dose: 400.0 mg/kg/injection, schedule: Q01DX009 (ip), vehicle: other

## CC[C@@]1(O)C(=O)OCc2c1cc1n(c2=O)Cc2cc3cc(O)ccc3nc2-1
dose: 0.5 mg/kg/injection, schedule: Q04DX003 (ip), vehicle: other
  T/C: 160 % of control and 229 % of control
dose: 0.79 mg/kg/injection, schedule: Q04DX003 (ip), vehicle: other
  T/C: 165 % of control
dose: 1.0 mg/kg/injection, schedule: Q04DX003 (ip), vehicle: other
  T/C: 166 % of control and 192 % of control
dose: 1.57 mg/kg/injection, schedule: Q04DX003 (ip), vehicle: other
  T/C: 199 % of control
dose: 2.0 mg/kg/injection, schedule: Q04DX003 (ip), vehicle: other
  T/C: 229 % of control
dose: 3.13 mg/kg/injection, schedule: Q04DX003 (ip), vehicle: other
  T/C: 295 % of control
dose: 4.0 mg/kg/injection, schedule: Q04DX003 (ip), vehicle: other
  T/C: 284 % of control and 314 % of control
dose: 8.0 mg/kg/injection, schedule: Q04DX003 (ip), vehicle: other
  T/C: 101 % of control

## CCc1nc(N)nc(N)c1-c1ccc(Cl)c(N=CN(C)C)c1
[1]
  T/C: 102 % of control
[2]
  T/C: 108 % of control
[3]
  T/C: 108 % of control

## COc1ccc2c(c1)[C@@]13CCCC[C@H]1[C@@H](C2)[N+](C)=CC3=NO
dose: 60.0 mg/kg/injection, schedule: Q01DX005 (ip), vehicle: Klucel (hydroxypropylcellulose) (HPC)
  T/C: 105 % of control

## Cn1nnnc1NN(c1nnnn1C)C1C=CCC=C1
[4]
  T/C: 99 % of control
[5]
  T/C: 97 % of control
[6]
  T/C: 98 % of control

## CS(=O)(=O)OCCN(CCOS(C)(=O)=O)c1ccc(N=Nc2ccccc2)cc1
dose: 12.5 mg/kg/injection, schedule: Q01DX009 (ip), vehicle: saline with Tween-80
  T/C: 156 % of control and 176 % of control
dose: 25.0 mg/kg/injection, schedule: Q01DX009 (ip), vehicle: saline with Tween-80
  T/C: 160 % of control

## CC(C)=NNC(=O)C1CCN1Cc1ccccc1 (stereo not drawn)
dose: 50.0 mg/kg/injection, schedule: Q01DX001 (ip), vehicle: saline
  T/C: 106 % of control
[7]
  T/C: 106 % of control
[8]
  T/C: 111 % of control
[9]
  T/C: 106 % of control

## C=C1C(O)C2(O)OCC34C(CC5C(C)=CC(=O)C(O)C5(C)C23)OC(=O)C(OC(=O)C/C=C(\C)CCCCC)C14 (stereo not drawn)
dose: 2.0 mg/kg/injection, schedule: Q01DX005 (ip), vehicle: saline + alcohol
  T/C: 161 % of control
dose: 4.0 mg/kg/injection, schedule: Q01DX005 (ip), vehicle: saline + alcohol
  T/C: 168 % of control and 169 % of control

## COc1ccc(C(C)(OC)c2cc(C(C)(C)C)c(O)c(C(C)(C)C)c2)cc1 (stereo not drawn)
dose: 50.0 mg/kg/injection, schedule: Q01DX005 (ip), vehicle: saline + Tween-80 + alcohol
  T/C: 104 % of control
dose: 100.0 mg/kg/injection, schedule: Q01DX005 (ip), vehicle: saline + Tween-80 + alcohol
  T/C: 101 % of control
dose: 200.0 mg/kg/injection, schedule: Q01DX005 (ip), vehicle: saline + Tween-80 + alcohol
  T/C: 102 % of control

## N#CC1C(=O)NC(=O)C(C#N)C1c1ccc(Cl)cc1 (stereo not drawn)
[10]
  T/C: 101 % of control
[11]
  T/C: 100 % of control
[12]
  T/C: 101 % of control

## CCCCCCC(=O)CCCCCCCCCCCCC(=O)OC
dose: 12.5 mg/kg/injection, schedule: Q04DX003 (ip), vehicle: saline with Tween-80
  T/C: 100 % of control
dose: 25.0 mg/kg/injection, schedule: Q04DX003 (ip), vehicle: saline with Tween-80
  T/C: 100 % of control
dose: 50.0 mg/kg/injection, schedule: Q04DX003 (ip), vehicle: saline with Tween-80
  T/C: 100 % of control

## NC(=O)C1C2CC3C(C2O)C31C(N)=O (stereo not drawn)
[13]
  T/C: 91 % of control
[14]
  T/C: 92 % of control
dose: 200.0 mg/kg/injection, schedule: Q01DX005 (ip), vehicle: saline
  T/C: 98 % of control

## CN=c1ccc2cc3ccc(NC)cc3oc-2c1
[13]
  T/C: 92 % of control
[14]
  T/C: 89 % of control

## CCN(CC)CCN1C(=O)c2cccc3cc([N+](=O)[O-])cc(c23)C1=O
dose: 12.5 mg/kg/injection, schedule: Q01DX005 (ip), vehicle: Klucel (hydroxypropylcellulose) (HPC)
  T/C: 107 % of control
dose: 25.0 mg/kg/injection, schedule: Q01DX005 (ip), vehicle: Klucel (hydroxypropylcellulose) (HPC)
  T/C: 124 % of control
[15]
  T/C: 156 % of control
[16]
  T/C: 195 % of control

## Cc1cc([N+](=O)[O-])cc(Cl)n1
dose: 3.12 mg/kg/injection, schedule: Q01DX009 (ip), vehicle: Klucel (hydroxypropylcellulose) (HPC)
  T/C: 106 % of control
dose: 6.25 mg/kg/injection, schedule: Q01DX009 (ip), vehicle: Klucel (hydroxypropylcellulose) (HPC)
  T/C: 99 % of control
[17]
  T/C: 100 % of control
[18]
  T/C: 106 % of control

## N#CNC(=O)c1cccnc1
dose: 50.0 mg/kg/injection, schedule: Q01DX009 (ip), vehicle: saline
  T/C: 99 % of control
dose: 100.0 mg/kg/injection, schedule: Q01DX009 (ip), vehicle: saline
  T/C: 94 % of control
dose: 200.0 mg/kg/injection, schedule: Q01DX009 (ip), vehicle: saline
  T/C: 99 % of control

## O=C1OC2(CCCCC2)N(c2ccccc2)C(=O)/C1=C/Nc1ccc(Cl)cc1
dose: 50.0 mg/kg/injection, schedule: Q01DX009 (ip), vehicle: saline with Tween-80
  T/C: 98 % of control
dose: 100.0 mg/kg/injection, schedule: Q01DX009 (ip), vehicle: saline with Tween-80
  T/C: 99 % of control
dose: 200.0 mg/kg/injection, schedule: Q01DX009 (ip), vehicle: saline with Tween-80
  T/C: 92 % of control

## O=C(Nc1ccc(CCO)cc1)c1cccc(F)c1
[1]
  T/C: 93 % of control
[2]
  T/C: 86 % of control
[3]
  T/C: 86 % of control

## CC(C)CCC(=O)OCCN1CCN(CCCN2c3ccccc3Sc3ccc(C(F)(F)F)cc32)CC1
[17]
  T/C: 114 % of control and 117 % of control
[18]
  T/C: 116 % of control

## O=C1SC(Nc2ccc([N+](=O)[O-])cc2)/C(=N\N=C2/C(Nc3ccc([N+](=O)[O-])cc3)SC(=O)N2Cc2ccccc2)N1Cc1ccccc1 (stereo not drawn)
dose: 100.0 mg/kg/injection, schedule: Q04DX002 (ip), vehicle: Klucel (hydroxypropylcellulose) (HPC)
  T/C: 95 % of control
dose: 200.0 mg/kg/injection, schedule: Q04DX002 (ip), vehicle: Klucel (hydroxypropylcellulose) (HPC)
  T/C: 95 % of control
dose: 400.0 mg/kg/injection, schedule: Q04DX002 (ip), vehicle: Klucel (hydroxypropylcellulose) (HPC)
  T/C: 97 % of control

## COC1=CC(=O)OC(/C=C/c2ccccc2)(OC)C1=O (stereo not drawn)
[1]
  T/C: 102 % of control
[2]
  T/C: 110 % of control
[3]
  T/C: 101 % of control

## COc1c(NC(C)=O)c2c(c([N+](=O)[O-])c1OC)C(=O)OC2
[15]
  T/C: 106 % of control
[16]
  T/C: 104 % of control
dose: 200.0 mg/kg/injection, schedule: Q01DX005 (ip), vehicle: Klucel (hydroxypropylcellulose) (HPC)
  T/C: 110 % of control

## NC(Cc1ccc([N+](=O)[O-])cc1)C(=O)O (stereo not drawn)
[7]
  T/C: 104 % of control
[4]
  T/C: 104 % of control
[8]
  T/C: 104 % of control
[5]
  T/C: 100 % of control
[9]
  T/C: 109 % of control
[6]
  T/C: 100 % of control

## CCCCCCCCCCCC(=O)CCCCC
[19]
  T/C: 90 % of control
[20]
  T/C: 100 % of control
[21]
  T/C: 104 % of control

## CCOC(=O)C(CC(=O)O)Cc1cccc(OC)c1OC (stereo not drawn)
dose: 25.0 mg/kg/injection, schedule: Q01DX009 (ip), vehicle: other
  T/C: 101 % of control
dose: 50.0 mg/kg/injection, schedule: Q01DX009 (ip), vehicle: other
  T/C: 100 % of control
[19]
  T/C: 111 % of control
[20]
  T/C: 97 % of control
[21]
  T/C: 93 % of control

## CSc1nc(N)c(C(=O)Nc2ccc([N+](=O)[O-])cc2)s1
[10]
  T/C: 99 % of control
[11]
  T/C: 99 % of control
[12]
  T/C: 100 % of control

## Nc1c[n+]([O-])ccn1
dose: 100.0 mg/kg/injection, schedule: Q04DX003 (ip), vehicle: saline
  T/C: 101 % of control
dose: 200.0 mg/kg/injection, schedule: Q04DX003 (ip), vehicle: saline
  T/C: 98 % of control
dose: 400.0 mg/kg/injection, schedule: Q04DX003 (ip), vehicle: saline
  T/C: 93 % of control

## C=C1C[C@H](O)[C@H]2C(C[Se]c3ccccc3)C(=O)O[C@@H]2[C@H]2[C@H](C)C(=O)C[C@@H]12 (stereo partly drawn)
[1]
  T/C: 97 % of control
[2]
  T/C: 95 % of control
[3]
  T/C: 92 % of control
